Results: patent publication US12325697B2 (Nimbus Clio, Inc., priority 2021, dated 2025)

Tests used:
[1] = biological target: Recombinant human Cbl-b (aa 36-427) (Homo sapiens (Human), UniProt Q13191); test: Cbl-b Biochemical Assay (TR-FRET); conditions: read-out: TR-FRET hCbl-b IC50
Method in brief: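 Two-step TR-FRET: 6 nM biotinylated Cbl-b preincubated 30-60 min with compound, then 60 min at RT with 1-2.5 nM Src-Zap70 and 0.5 mM ATP in HEPES pH 7.0 buffer, 1% DMSO. Stopped with 5 mM EDTA plus 100 nM UBE2D2-Ub-FL-BODIPY and 1 nM streptavidin-Tb, 60 min; 520 nm signal; IC50 from 4-parameter fit.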

[2] = biological target: Recombinant human c-Cbl (aa 47-435) (Homo sapiens (Human), UniProt P22681); test: c-Cbl Biochemical Assay (TR-FRET)
Method in brief: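 Biotinylated c-Cbl (6 nM) preincubated 30 min RT with compound, then reacted 60-90 min with Src-Zap70 (2.5-10 nM) and 0.5 mM ATP, pH 7.0 HEPES buffer. Stopped with EDTA; 100 nM Bodipy-ubiquitinated UBE2D2 binding read by TR-FRET after 60 min; IC50 from 4-parameter fit.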

Chain of Recombinant human Cbl-b (aa 36-427) (Q13191 36-427): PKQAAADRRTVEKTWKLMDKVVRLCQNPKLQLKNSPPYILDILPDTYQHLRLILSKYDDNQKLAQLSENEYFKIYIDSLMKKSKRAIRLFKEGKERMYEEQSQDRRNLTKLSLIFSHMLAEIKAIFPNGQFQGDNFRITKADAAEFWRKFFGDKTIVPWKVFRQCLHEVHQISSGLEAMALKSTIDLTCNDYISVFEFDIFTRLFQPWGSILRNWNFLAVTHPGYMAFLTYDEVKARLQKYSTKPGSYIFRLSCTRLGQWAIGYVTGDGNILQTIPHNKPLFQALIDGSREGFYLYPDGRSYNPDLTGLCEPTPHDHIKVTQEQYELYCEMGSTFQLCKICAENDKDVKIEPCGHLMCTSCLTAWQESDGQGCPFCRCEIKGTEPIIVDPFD
Chain of Recombinant human c-Cbl (aa 47-435) (P22681 47-435): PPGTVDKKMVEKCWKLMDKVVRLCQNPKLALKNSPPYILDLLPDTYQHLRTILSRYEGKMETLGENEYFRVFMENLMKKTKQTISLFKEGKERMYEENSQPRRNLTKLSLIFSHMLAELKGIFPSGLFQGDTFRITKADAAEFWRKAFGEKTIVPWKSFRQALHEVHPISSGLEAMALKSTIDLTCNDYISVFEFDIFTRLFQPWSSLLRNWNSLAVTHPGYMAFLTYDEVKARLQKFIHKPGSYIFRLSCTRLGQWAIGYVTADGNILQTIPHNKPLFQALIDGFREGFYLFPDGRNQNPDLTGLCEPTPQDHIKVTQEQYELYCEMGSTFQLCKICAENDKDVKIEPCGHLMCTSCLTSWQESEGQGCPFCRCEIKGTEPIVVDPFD

Cn1cnnc1-c1cc(C#N)ccc1-c1cc(C2CC2)nc(N2Cc3c(F)cc(CN4CC[C@H]5OCC[C@H]54)cc3C2=O)c1 (stereo in doubt) [ANF-11, 4-[2-Cyclopropyl-6-(4-fluoro-6-{hexahydrofuro[3,2-b]pyrrol-4-ylmethyl}-1-oxo-3H-isoindol-2-yl)pyridin-4-yl]-3-(4-methyl-1,2,4-triazol-3-yl)benzonitrile]
IC50 [1]: ≤ 200 nM
IC50 [2]: ≤ 200 nM

Cn1cnnc1-c1cc(C#N)ccc1-c1cc(C2CC2)nc(N2Cc3ccc(CNCC4(C)CCC4)cc3C2=O)c1 [ALP-1, 4-{2-Cyclopropyl-6-[6-({[(1-methylcyclobutyl)methyl]amino}methyl)-1-oxo-3H-isoindol-2-yl]pyridin-4-yl}-3-(4-methyl-1,2,4-triazol-3-yl)benzonitrile]
IC50 [1]: ≤ 200 nM
IC50 [2]: ≤ 200 nM

Cn1cnnc1-c1cc(C#N)ccc1-c1cc(C2CC2)nc(N2Cc3c(F)cc(CN4CC5CC5C4)cc3C2=O)c1 (stereo not drawn) [AKQ-2, 4-[2-(6-{3-Azabicyclo[3.1.0]hexan-3-ylmethyl}-4-fluoro-1-oxo-3H-isoindol-2-yl)-6-cyclopropylpyridin-4-yl]-3-(4-methyl-1,2,4-triazol-3-yl)benzonitrile]
IC50 [1]: ≤ 200 nM
IC50 [2]: ≤ 200 nM

Cn1cnnc1-c1cc(C#N)ccc1-c1cc(C2CC2)nc(N2Cc3ccc(COCC4CCCC4)cc3C2=O)c1 [AIS-2, 4-(2-{6-[(cyclopentylmethoxy)methyl]-1-oxo-3H-isoindol-2-yl}-6-cyclopropylpyridin-4-yl)-3-(4-methyl-1,2,4-triazol-3-yl)benzonitrile]
IC50 [1]: ≤ 200 nM
IC50 [2]: ≤ 200 nM

COC[C@@H](C)NCc1cc(F)c2c(c1)C(=O)N(c1cc(-c3ccc(C#N)cc3-c3nncn3C)cc(C3CC3)n1)C2 [AKH-1, 4-{2-Cyclopropyl-6-[4-fluoro-6-({[(2R)-1-methoxypropan-2-yl]amino}methyl)-1-oxo-3H-isoindol-2-yl]pyridin-4-yl}-3-(4-methyl-1,2,4-triazol-3-yl)benzonitrile]
IC50 [1]: ≤ 200 nM
IC50 [2]: ≤ 200 nM

CN(Cc1ccc2c(c1)C(=O)N(c1cc(-c3ccc(C#N)cc3-c3nncn3C)cc(C3CC3)n1)C2)CC1CCC1 [AMF-1, 4-[2-(6-{[(cyclobutylmethyl)(methyl)amino]methyl}-1-oxo-3H-isoindol-2-yl)-6-cyclopropylpyridin-4-yl]-3-(4-methyl-1,2,4-triazol-3-yl)benzonitrile]
IC50 [1]: ≤ 200 nM
IC50 [2]: ≤ 200 nM

CCOc1cc(-c2ccc(C#N)cc2-c2nncn2C)cc(N2Cc3ccc(CNCC4(F)CCC4)cc3C2=O)n1 [AKJ-1, 4-{2-Ethoxy-6-[6-({[(1-fluorocyclobutyl)methyl]amino}methyl)-1-oxo-3H-isoindol-2-yl]pyridin-4-yl}-3-(4-methyl-1,2,4-triazol-3-yl)benzonitrile]
IC50 [1]: ≤ 200 nM
IC50 [2]: ≤ 200 nM

CN(Cc1ccc2c(c1)C(=O)N(c1cc(-c3ccc(C#N)cc3-c3nncn3C)cc(C3CC3)n1)C2)CC1COC1 [ANX-2, 4-[2-Cyclopropyl-6-(6-{[methyl(oxetan-3-ylmethyl)amino]methyl}-1-oxo-3H-isoindol-2-yl)pyridin-4-yl]-3-(4-methyl-1,2,4-triazol-3-yl)benzonitrile]
IC50 [1]: ≤ 200 nM
IC50 [2]: ≤ 200 nM

COCCNCc1cc(F)c2c(c1)C(=O)N(c1cc(-c3ccc(C#N)cc3-c3nncn3C)cc(C(F)(F)F)n1)C2 [ALN-2, 4-[2-(4-Fluoro-6-{[(2-methoxyethyl)amino]methyl}-1-oxo-3H-isoindol-2-yl)-6-(trifluoromethyl)pyridin-4-yl]-3-(4-methyl-1,2,4-triazol-3-yl)benzonitrile]
IC50 [1]: ≤ 200 nM
IC50 [2]: ≤ 200 nM

Cn1cnnc1-c1cc(C#N)ccc1-c1cc(C2CC2)cc(N2Cc3ccc(CNCC4CC4)cc3C2=O)c1 [AJR-1, 3′-Cyclopropyl-5′-(6-{[(cyclopropylmethyl)amino]methyl}-1-oxo-3H-isoindol-2-yl)-2-(4-methyl-1,2,4-triazol-3-yl)-[1,1′-biphenyl]-4-carbonitrile]
IC50 [1]: ≤ 200 nM
IC50 [2]: ≤ 200 nM

Cn1cnnc1-c1cc(C#N)ccc1-c1cc(C2CC2)nc(N2Cc3ccc(CN4C[C@@H]5C[C@H]4CO5)cc3C2=O)c1 [AMN-1, 4-(2-Cyclopropyl-6-{6-[(1S,4S)-2-oxa-5-azabicyclo[2.2.1]heptan-5-ylmethyl]-1-oxo-3H-isoindol-2-yl}pyridin-4-yl)-3-(4-methyl-1,2,4-triazol-3-yl)benzonitrile]
IC50 [1]: ≤ 200 nM
IC50 [2]: ≤ 200 nM

Cn1cnnc1-c1cc(C#N)ccc1-c1cc(C2CC2)nc(N2Cc3ccc(CN4CC5CC5C4)cc3C2=O)c1 (stereo not drawn) [ANA-1, 4-[2-(6-{3-Azabicyclo[3.1.0]hexan-3-ylmethyl}-1-oxo-3H-isoindol-2-yl)-6-cyclopropylpyridin-4-yl]-3-(4-methyl-1,2,4-triazol-3-yl)benzonitrile]
IC50 [1]: ≤ 200 nM
IC50 [2]: ≤ 200 nM

C[C@@H](NCc1ccc2c(c1)C(=O)N(c1cc(-c3ccc(C#N)cc3-c3nncn3C)cc(C3CC3)n1)C2)C1CCC1 [AOJ-2, 4-{2-[6-({[(1R)-1-Cyclobutylethyl]amino}methyl)-1-oxo-3H-isoindol-2-yl]-6-cyclopropylpyridin-4-yl}-3-(4-methyl-1,2,4-triazol-3-yl)benzonitrile]
IC50 [1]: ≤ 200 nM
IC50 [2]: ≤ 200 nM

COC[C@H]1CCN1Cc1cc(F)c2c(c1)C(=O)N(c1cc(-c3ccc(C#N)cc3-c3nncn3C)cc(C3CC3)n1)C2 [AOW-2, 4-[2-Cyclopropyl-6-(4-fluoro-6-{[(2R)-2-(methoxymethyl)azetidin-1-yl]methyl}-1-oxo-3H-isoindol-2-yl)pyridin-4-yl]-3-(4-methyl-1,2,4-triazol-3-yl)benzonitrile]
IC50 [1]: ≤ 200 nM
IC50 [2]: ≤ 200 nM

Cn1cnnc1-c1cc(C#N)ccc1-c1cc(C2CC2)nc(N2Cc3ccc(CN[C@H]4CCOC4)cc3C2=O)c1 [ANQ-2, 4-[2-Cyclopropyl-6-(1-oxo-6-{[(3S)-oxolan-3-ylamino]methyl}-3H-isoindol-2-yl)pyridin-4-yl]-3-(4-methyl-1,2,4-triazol-3-yl)benzonitrile]
IC50 [1]: ≤ 200 nM
IC50 [2]: ≤ 200 nM

Cn1cnnc1-c1cc(C#N)ccc1-c1cc(C2CC2)nc(N2Cc3c(cc(CNCC4COC4)c(F)c3F)C2=O)c1 [ANE-1, 4-[2-Cyclopropyl-6-(4,5-difluoro-6-{[(oxetan-3-ylmethyl)amino]methyl}-1-oxo-3H-isoindol-2-yl)pyridin-4-yl]-3-(4-methyl-1,2,4-triazol-3-yl)benzonitrile]
IC50 [1]: ≤ 200 nM
IC50 [2]: ≤ 200 nM

Cn1cnnc1-c1cc(C#N)ccc1-c1cc(C2CC2)nc(N2Cc3ccc(CO)cc3C2=O)c1 [AHV-1, 4-{2-Cyclopropyl-6-[6-(hydroxymethyl)-1-oxo-3H-isoindol-2-yl]pyridin-4-yl}-3-(4-methyl-1,2,4-triazol-3-yl)benzonitrile]
IC50 [1]: ≤ 200 nM
IC50 [2]: ≤ 200 nM

COCCN(C)Cc1cc2c(c(F)c1F)CN(c1cc(-c3ccc(C#N)cc3-c3nncn3C)cc(C3CC3)n1)C2=O [AMZ-3, 4-[2-Cyclopropyl-6-(4,5-difluoro-6-{[(2-methoxyethyl)(methyl)amino]methyl}-1-oxo-3H-isoindol-2-yl)pyridin-4-yl]-3-(4-methyl-1,2,4-triazol-3-yl)benzonitrile]
IC50 [1]: ≤ 200 nM
IC50 [2]: ≤ 200 nM
